Assay: Solubility observed during synthesis and purification
Assay type: physicochemical
Conditions: cause of yield and purification difficulties

solubility: poor solubility
SMILES: Cc1nc(N)sc1-c1csc(Nc2cc(N(C)C)ccc2Cl)n1 [compound 15, N^2-(2-chloro-5-(dimethylamino)phenyl)-4′-methyl-[4,5′-bithiazole]-2,2′-diamine]

— publication PMC3274619 (Bioorganic & medicinal chemistry letters, 2012)
